Data on one compound can be found in patent publication US20050037450A1, “Novel targets for lithium therapy” (Duke University, priority 2002, published 2005).

Usually IC50 stands for the concentration at which inhibition is half-maximal.

Data set [1] has as its system Wild type yeast. Description: Lithium inhibition of yeast growth (OD600), wild type. The following applies: Saccharomyces cerevisiae. It is filed as cell-based, S. cerevisiae. On the procedure: FIG. 7 is a graph showing met3Δ and met14Δ strains are lithium resistant. Wild type, met3Δ, and met14Δ yeast were resuspended at 5×10^4/ml in CM/ura^− containing 2% dextrose and 1.25 μg/ml methionine. Growth at various concentrations of LiCl was measured after a 24 hr incubation at 30° C. The growth is plotted relative to growth in media lacking lithium.
FIG. 10 is a graph showing methionine supplementation induces lithium resistance. Wild type yeast were inoculated at 5×10^4 cells per ml into synthetic media with or without methionine containing the noted concentration of LiCl. Growth was assayed by spectrophotometry following 48 hrs of growth at 30° C.
Wild type yeast were grown in CM/ura^− containing 2% galactose to mid-log phase. The cultures were washed and resuspended at 5×10^5 cells/ml in CM/ura^−/met^− containing the noted lithium and chlorate concentrations. Following growth for 24 hr at 30° C., the cultures were resuspended, and growth was measured by determining the absorbance at λ=600 nm.
Since methionine effects transcriptional down regulation of the MET3 and MET14 gene products in wild type yeast, the relative lithium sensitivities of the met3Δ and met14Δ strains were assayed in growth media containing reduced methionine (1.25 μg/ml). The use of limited methionine allowed for the comparison of the relative sensitivity to lithium of yeast expressing (wild type) or lacking (met3Δ and met14Δ) PAPS synthetase activities.
The yeast system was used to determine if chlorate could be used to effect a relevant decrease in the accumulation of PAP in the presence of lithium. […] The decrease in PAP accumulation was physiologically relevant since chlorate produced a protective effect in the presence of lithium. […] When 25 mM NaClO3 is included in the culture medium, the growth inhibition is abated, with the IC50 increasing to approximately 80 mM LiCl (FIG. 11)

The test system of data set [2] is intracellular PAP in met14Δ cells. It counts as cell-based, S. cerevisiae. On the procedure: (§1) Yeast were grown in CM/ura^− containing 2% galactose to mid-log phase. The cultures were washed extensively and resuspended in the CM/ura^−/met^− media with the noted inclusions. PAP was measured using the ligand binding assay described in Experimental Procedures. Intracellular PAP concentrations were normalized to the amount of soluble protein extracted from the cultures.
(§2) For the assay of intracellular PAP concentrations, appropriate yeast strains were grown in CM/ura^− to mid-log phase (OD600=1.0). The cells were centrifuged and washed extensively in sterile water. The cells were resuspended in CM/ura^−/met^− containing methionine (20 μg/ml), lithium, or chlorate as appropriate. The cultures were incubated with shaking at 30° C. At various time points, 2 ml of culture was removed and centrifuged. The cells were washed with 1 ml of water. 250 μl was centrifuged and resuspended in 200 μl K-lysis buffer. 200 μl of glass beads were added, and the cells were disrupted by vigorous bead beating. The amount of soluble protein in this extract was determined using a Bradford dye-binding assay (BioRad, Hercules, Calif., United States of America) with bovine serum albumin as a standard. The remaining 750 μl of washed cells was spun down and resuspended in 250 μl of 2 N HClO4. This was incubated at 4° C. for 20 min, when 250 μl of 1.8 N KOH, 0.4 N KHCO3 were added to neutralize and precipitate the HClO4. The extract was centrifuged at 4° C. to remove the debris, and the supernatant was lyophilized using a rotary evaporator. The dried extracts were frozen at −80° C. for no more than one week prior to use. Extracts were reconstituted in 100 μL of 200 mM HEPES, pH 7.5 and again centrifuged to remove debris. 5′ [^32P] 3′, 5′ PAP was created as described (Spiegelberg, 1999). The GST-PST assay was performed by mixing 10 μL of standard PAP, treated as above, or 10 μL of sample diluted approximately 1:1000 in K-lysis buffer, with 10 μL of radiolabeled PAP (approximately 10,000 CPM). Eighty microliters of a reaction mix containing 100 mM HEPES, pH 7.0, 5 mM DTT, 0.2 mg/ml BSA, and 1 μg of GST-PST were added to start the binding reaction. The reactions were allowed to equilibrate for at least one hour at room temperature. Following incubation, 20 μl of a 50:50 slurry of glutathione sepharose in K-lysis buffer was added. The tubes were incubated with gentle mixing for 10 min at room temperature. The protein with bound PAP was pulled down by centrifugation for 2 min at room temperature. 80 μl of the supernatant, containing free PAP, was removed to a scintillation vial and 200 μl of K-lysis buffer was added to wash the resin. The tubes were centrifuged again and the 200 μl wash was transferred to the original scintillation vials. Radioactivity was determined by adding 5 ml of […] ECONO2™ scintillation fluid (Fisher Scientific, Hampton, N.H., United States of America) and counted in a liquid scintillation counter. The counts were converted to percent isotope bound, and a standard curve was prepared by plotting percent bound vs. the logarithm of the PAP concentration. This standard curve was used to back-calculate the PAP concentration in the unknown samples.
(§3) The GST-PST binding assay was used to determine relative intracellular PAP concentrations in yeast strains grown under various conditions. The PAP concentration determined in the binding assay was normalized to the total soluble protein in parallel extracts, and background was eliminated by reporting only the signal that was sensitive to in vitro degradation by purified recombinant Hal2p. The assay was characterized further by analyzing the intracellular PAP concentration of wild type yeast grown in the presence of lithium.

In data set [3] the test system is intracellular PAP in met3Δ cells. It is filed as cell-based, S. cerevisiae. On the procedure: as §1, §2, §3
Data set [4] concerns patients. Particulars: cited from earlier work.

Molecules are shown by their SMILES. Values joined by “and” are separate entries in the source; they are usually repeats but may differ in a detail not shown here. Equal values may be shown once. Read-outs that look alike come from different tables or passages of the source.

`[Li]` [lithium]: the IC50 in data set [1] (CM/ura− 2% dextrose, 1.25 μg/ml methionine, 24 hr at 30° C., growth relative to media lacking lithium, read-out: IC50 of lithium for growth inhibition) is about 40 mM; in data set [1] (CM/ura−/met−, 24 hr at 30° C., 25 mM NaClO3 in culture medium, read-out: IC50 of LiCl for growth inhibition with chlorate) it was about 80 mM; in data set [1] (synthetic media without methionine, 48 hrs at 30° C., read-out: IC50 for lithium in met− media), about 40 mM. In addition, the “Fold increase of PAP concentration” value in data set [2] (met14Δ expressing hPAPSS2, 100 mM lithium vs absence of lithium) is given as at least 65.4 fold; in data set [3] (met3Δ expressing hPAPSS2, 100 mM lithium vs absence of lithium), at least 72.4 fold. Moreover, the “Intracellular PAP concentration” value is ~32.8 nmol/mg and 32.7 nmol/mg in data set [2] (met14Δ expressing hPAPSS2, 100 mM lithium, eight hours); “less than 0.5 nmol PAP/mg soluble protein” in data set [2] (met14Δ with empty vector, independent of methionine and lithium concentration, data not shown); “less than 0.5 nmol PAP/mg soluble protein” in data set [3] (met3Δ with empty vector, independent of methionine and lithium concentration, data not shown). For the same compound, the “Occurrence of acquired nephrogenic diabetes insipidus (NDI)” value in data set [4] (patients taking the drug) is 20-50%. Besides, the “Patients reporting clinically significant polyuria” value in data set [4] (patients undergoing lithium therapy) is given as “Up to 20%”.
